Values of other authors in patent US4144131A, “Immobilization of enzymes on human tissue or erythrocytes” (Wisconsin Alumni Research Foundation, priority 1974, dated 1979).

Tested on: soybean lipoxygenase
Settings: read-out: Km for oxygen, compared with oxygen concentrations in tumor tissue

- Km: 30 µM
Structure (SMILES): O=O [oxygen]
